# Laboratory results taken from US9116112B2, “UV protective skin treatment compositions and screening methods” (JR Chem LLC, priority 2011, dated 2015).
# Values joined by “and” are separate entries in the source; they are usually repeats but may differ in a detail not shown here. Equal entries are not always repeated.
# Tests used:
# [1] = Briggs-Rauscher Oscillation Reaction Method (BROM) antioxidant capacity; format: biochemical; settings: for BROM: Table 2, common antioxidants present in body fluids and tissues; for calculated BROM value at product concentration: Arbutin at 0.2 wt. %, BHT at 0.1 wt. %; for BROM value of individual antioxidant: text b80, rounded values used for calculation
# [2] = Table 2, Water or Lipid; cited from earlier work
# Balb/c 3T3 cells = assay: 3T3 Neutral Red Uptake Phototoxicity Test (3T3 NRU PT); format: cell-based, murine; settings: positive control, dose dates 03/10/11, 03/15/11, 03/22/11
# Source text: The 3T3 Neutral Red Phototoxicity Test (3T3 NRU PT) was used to assess toxicological performance. It is a relatively new assay that was adopted by regulatory agencies such as OECD and FDA as an accepted method for the assessment of phototoxic potential of test substances. It is an in-vitro toxicological assessment test used to determine cytotoxic and photo(cyto)toxicity effect of a test article to murine fibroblasts in the presence or absence of UVA light (99% UVA/1% UVB). The 3T3 Neutral Red Uptake Phototoxicity Assay (3T3 NRU PT) can be utilized to identify the phototoxic effect of a test substance induced by the combination of test substance and light and is based on the comparison of the cytotoxic effect of a test substance when tested after the exposure and in the absence of exposure to a non-cytotoxic dose of UVA/vis light. Cytotoxicity is expressed as a concentration dependent reduction of the uptake of the vital dye—Neutral Red. […]
# For both the range finding screen and the definitive test, Balb/c 3T3 cells were seeded in the central 60 wells of duplicate 96-well microplates per test article and maintained in culture for 24 hours. […] After UV irradiation, the treatment medium was replaced with culture medium and after 24 hours, cell viability was determined by neutral red uptake for 3 hours. […]
compound,measurement,setting,value
O=C1O[C@H]([C@@H](O)CO)C(O)=C1O[C@H]1O[C@H](CO)[C@@H](O)[C@H](O)[C@H]1O [Ascorbyl Glucoside],Result [s/μg] (BROM by Strength),"[1]; Table 3, solvent Water",No clear
"CC(C)c1c(C(=O)Nc2ccccc2)c(-c2ccccc2)c(-c2ccc(F)cc2)n1CC[C@@H](O)C[C@@H](O)CC(=O)O [Atorvastatin (Lipitor), Atorvastatin]",Result [s/μg] (BROM by Strength),"[1]; Table 3, solvent Ethanol",8.41 s/µg
N[C@@H](CCC(=O)N[C@@H](CS)C(=O)NCC(=O)O)C(=O)O [Glutathione],BROM,[1],0.000991 s/µg
same,Result [s/μg] (BROM by Strength),"[1]; Table 3, solvent Water",0.000991 s/µg
same,Solubility,[2],Water
COc1ccc(C(=O)c2ccccc2)c(O)c1 [Oxybenzone],Result [s/μg] (BROM by Strength),"[1]; Table 3, solvent Ethanol",0 s/µg
Oc1cccc(O)c1 [Resorcinol],Result [s/μg] (BROM by Strength),"[1]; Table 3, solvent Water",30.39 s/µg
Oc1ccc(O)cc1 [Hydroquinone],Result [s/μg] (BROM by Strength),"[1]; Table 3, solvent 50% Ethanol",1.1 s/µg
same,Result [s/μg] (BROM by Strength),"[1]; Table 3, solvent Water",1.31 s/µg
"OC[C@H]1O[C@@H](Oc2ccc(O)cc2)[C@H](O)[C@@H](O)[C@@H]1O (racemic) [Arbutin Racemic mixture, Arbutin]",Result [s/μg] (BROM by Strength),"[1]; Table 3, solvent 50% Ethanol",47 s/µg
same,Result [s/μg] (BROM by Strength),"[1]; Table 3, solvent Water",49.4 s/µg
CC(=O)Oc1c(C)c(C)c2c(c1C)CCC(C)(CCC[C@H](C)CCC[C@H](C)CCCC(C)C)O2 (some centres unmarked) [Vitamin E Acetate],electron scavenging capacity (BROM),[1],do not show measurable electron scavenging capacity
same,Result [s/μg] (BROM by Strength),"[1]; Table 3, solvent Ethanol",0 s/µg
"COc1c(O)c(C)c(C/C=C(\C)CC/C=C(\C)CC/C=C(\C)CC/C=C(\C)CC/C=C(\C)CC/C=C(\C)CC/C=C(\C)CC/C=C(\C)CC/C=C(\C)CCC=C(C)C)c(O)c1OC [Ubiquinol (coenzyme Q10), Ubiquinol]",BROM,[1],0 s/µg
same,Solubility,[2],Lipid
OC[C@H]1O[C@@H](Oc2ccc(O)cc2)[C@H](O)[C@@H](O)[C@@H]1O [8 Arbutin],Result [s/μg] (BROM by Strength),"[1]; Table 3, solvent Water",40.53 s/µg
OC[C@H]1O[C@@H](Oc2ccc(O)cc2)[C@H](O)[C@@H](O)[C@@H]1O [Arbutin],calculated BROM value at product concentration,[1],0.1
same,BROM value of individual antioxidant,[1],50 s/µg
"Cc1cc(C(C)(C)C)c(O)c(C(C)(C)C)c1 [BHT, butylatedhydroxytoluene]",calculated BROM value at product concentration,[1],0.03
same,Result [s/μg] (BROM by Strength),"[1]; Table 3, solvent 50% Ethanol",34.53 s/µg
same,Result [s/μg] (BROM by Strength),"[1]; Table 3, solvent Ethanol",29.4 s/µg
same,BROM value of individual antioxidant,[1],30 s/µg
Cc1c(C)c2c(c(C)c1O)CCC(C)(C(=O)O)O2 (centres unmarked) [Trolox],electron scavenging capacity (BROM),[1],do not show measurable electron scavenging capacity
same,Result [s/μg] (BROM by Strength),"[1]; Table 3, solvent Ethanol",0.021 s/µg
"O=C1O[C@H]([C@@H](O)CO)C(O)=C1O [Ascorbic Acid, Ascorbic acid]",BROM value,[1],0.00105 s/µg
same,electron scavenging capacity (BROM),[1],do not show measurable electron scavenging capacity
same,BROM,[1],0.00105 s/µg
same,Result [s/μg] (BROM by Strength),"[1]; Table 3, solvent Water",0.00105 s/µg
Carotenes,Solubility,[2],Lipid
"CN(C)CCCN1c2ccccc2Sc2ccc(Cl)cc21 [CPZ, Chloropromazine]",EC50 +SSL,Balb/c 3T3 cells; +SSL,0.394 µg/mL and 0.725 µg/mL and 0.682 µg/mL
same,EC50 No SSL,Balb/c 3T3 cells; dark,19.592 µg/mL and 24.805 µg/mL and 26.457 µg/mL
COc1ccc([C@@H]2CC(=O)c3c(O)cc(O[C@@H]4O[C@H](CO[C@@H]5O[C@@H](C)[C@H](O)[C@@H](O)[C@H]5O)[C@@H](O)[C@H](O)[C@H]4O)cc3O2)cc1O [Hesperidin],Result [s/μg] (BROM by Strength),"[1]; Table 3, solvent Water",5.38 s/µg
"Cc1c(C)c2c(c(C)c1O)CC[C@@](C)(CCC[C@H](C)CCC[C@H](C)CCCC(C)C)O2 [α-Tocopherol (vitamin E), α-Tocopherol]",BROM value,[1],0 s/µg
same,BROM,[1],0 s/µg
same,Solubility,[2],Lipid
NC(=O)NC1NC(=O)NC1=O (centres unmarked) [Allantoin],Result [s/μg] (BROM by Strength),"[1]; Table 3, solvent Water",0 s/µg
CCCCC(CC)COC(=O)C(C#N)=C(c1ccccc1)c1ccc(OC)cc1 (centres unmarked) [Solastay S1],Result [s/μg] (BROM by Strength),"[1]; Table 3, solvent Ethanol",0 s/µg
CC(C)(C)c1cc(O)ccc1O [Tert-Butylhydroquinone],Result [s/μg] (BROM by Strength),"[1]; Table 3, solvent Ethanol",0.13 s/µg
"O=c1[nH]c(=O)c2[nH]c(=O)[nH]c2[nH]1 [Uric Acid, Uric acid]",BROM,[1],9.14 s/µg
same,Result [s/μg] (BROM by Strength),"[1]; Table 3, solvent Water",9.14 s/µg
same,Solubility,[2],Water
CC1=C(/C=C/C(C)=C/C=C/C(C)=C/C(=O)O)C(C)(C)CCC1 [Tretinoin],BROM,[1],0 s/µg
same,Result [s/μg] (BROM by Strength),"[1]; Table 3, solvent Ethanol",0 s/µg
O=C[C@H](O)[C@@H](O)[C@H](O)[C@H](O)CO [D-Glucose],Result [s/μg] (BROM by Strength),"[1]; Table 3, solvent Water",0 s/µg
